Results taken from the supplement of paper PMC10627819.

How the values were obtained:
B. subtilis 168 = assay: fitness (endpoint OD595 vs no drug) (fraction); higher = more growth
Procedure, shortened: (§1)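 In 384-well plates at 37 °C, cultures began at OD595 0.01 in 30 µl, with 55 µl used for S. pneumoniae. OD595 readings every 30 min for 14 h were corrected by the first reading. Fitness divides the stationary-phase transition optical density by the robust mean of no-drug control wells. The result is capped at 1.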

S. pneumoniae D39V = assay: as above
Procedure, shortened: as §1
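Also: OD595 on entry to stationary phase over no-drug wells; at most 1.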

N[C@@H]1CONC1=O [Cycloserine D] + CCC(C)C1C(=O)NC(=C)C(=O)NC(C(=O)NC(CSCC(C(=O)N1)NC(=O)/C(=C/C)/NC(=O)C(C(C)CC)N)C(=O)NC2C(SCC(NC(=O)CNC(=O)C3CCCN3C2=O)C(=O)NC(CCCCN)C(=O)NC4C(SCC(NC(=O)CNC(=O)C(NC(=O)C(NC(=O)C(NC(=O)CNC4=O)C)CC(C)C)CCSC)C(=O)NC(CC(=O)N)C(=O)NC(CCSC)C(=O)NC(CCCCN)C(=O)NC5C(SCC6C(=O)NC(C(=O)NC(CSC(C(C(=O)N6)NC(=O)C(NC5=O)C)C)C(=O)NC(CO)C(=O)NC(C(C)CC)C(=O)NC(CC7=CN=CN7)C(=O)NC(C(C)C)C(=O)NC(=C)C(=O)NC(CCCCN)C(=O)O)CC8=CN=CN8)C)C)C)CC(C)C [Nisin]
fitness, B. subtilis 168, main component drawn
Conditions	first compound 0.125 µg/mL	first compound 0.25 µg/mL	first compound 0.5 µg/mL
partner 0.5 µg/mL	0.926	0.867	0.878
partner 1 µg/mL	0.888	0.824	0.81
partner 2 µg/mL	0.589	0.601	0.606

fitness, B. subtilis 168, one replicate, main component drawn
Conditions	partner 1.25 µg/mL	partner 1.6 µg/mL	partner 2.5 µg/mL	partner 3.2 µg/mL	partner 4 µg/mL	partner 5 µg/mL	partner 6.4 µg/mL	partner 8 µg/mL	partner 16 µg/mL
first compound 0.125 µg/mL	≥ 1	0.654	0.708	0.0215	0.0688	0.137	0.0306	0.0472	0.0248
first compound 0.25 µg/mL	≥ 1	0.681	0.698	0.0139	0.0497	0.0686	0.0459	0.0297	0.0048
first compound 0.5 µg/mL	0.985	0.721	0.341	0.0205	0.041	0.0366	0.017	0.0245	0.0169

N[C@@H]1CONC1=O [Cycloserine D] + CN(C)C(=O)C(CCN1CCC(O)(c2ccc(Cl)cc2)CC1)(c1ccccc1)c1ccccc1 [Loperamide]
fitness, B. subtilis 168
Conditions	first compound 0.125 µg/mL	first compound 0.25 µg/mL	first compound 0.5 µg/mL
partner 50 µg/mL	0.0169	0.0651	0.0491
partner 100 µg/mL	0.0259	0.0243	0.0094

N[C@@H]1CONC1=O [Cycloserine D] + CO[C@@H]1[C@@H](OC(N)=O)[C@@H](O)[C@H](Oc2ccc3c(O)c(NC(=O)c4ccc(O)c(CC=C(C)C)c4)c(=O)oc3c2C)OC1(C)C [Novobiocin]
fitness, B. subtilis 168
Conditions	first compound 0.125 µg/mL	first compound 0.25 µg/mL	first compound 0.5 µg/mL
partner 0.0125 µg/mL	0.987	0.943	0.922
partner 0.025 µg/mL	0.957	0.957	0.913
partner 0.05 µg/mL	≥ 1	0.994	0.992

fitness, B. subtilis 168, one replicate
Conditions	partner 0.1 µg/mL	partner 0.125 µg/mL	partner 0.2 µg/mL	partner 0.25 µg/mL	partner 0.5 µg/mL
first compound 0.125 µg/mL	0.906	0.871	0.921	0.908	0.605
first compound 0.25 µg/mL	0.995	0.962	≥ 1	0.852	0.632
first compound 0.5 µg/mL	≥ 1	0.967	0.952	0.958	0.544

N[C@@H]1CONC1=O [Cycloserine D] + C[C@H]1COc2c(N3CCN(C)CC3)c(F)cc3c(=O)c(C(=O)O)cn1c23 [Levofloxacin]
fitness, B. subtilis 168, one replicate
Conditions	first compound 0.125 µg/mL	first compound 0.25 µg/mL	first compound 0.5 µg/mL
partner 0.001 µg/mL	0.979	0.973	0.987
partner 0.0078 µg/mL	0.898	0.863	0.968

fitness, B. subtilis 168
Conditions	partner 0.002 µg/mL	partner 0.0039 µg/mL	partner 0.0312 µg/mL	partner 0.0625 µg/mL	partner 0.125 µg/mL
first compound 0.125 µg/mL	0.93	0.92	0.0375	0.0466	0.0546
first compound 0.25 µg/mL	0.921	0.902	0.0356	0.0536	0.0482
first compound 0.5 µg/mL	0.965	0.995	0.0328	0.0466	0.0559

N[C@@H]1CONC1=O [Cycloserine D] + C[C@H]1c2cccc(O)c2C(=O)C2=C(O)[C@]3(O)C(=O)C(C(N)=O)=C(O)[C@@H](N(C)C)[C@@H]3[C@@H](O)[C@@H]21 [Doxycycline]
fitness, B. subtilis 168
Conditions	first compound 0.125 µg/mL	first compound 0.25 µg/mL	first compound 0.5 µg/mL
partner 0.02 µg/mL	0.909	0.903	0.898
partner 0.04 µg/mL	0.738	0.732	0.709

C[C@@H](O)[C@H]1C(=O)N2C(C(=O)O)=C(SCCNC=N)C[C@H]12 [Imipenem] + CC1=C(C(=O)O)N2C(=O)[C@@H](NC(=O)[C@H](N)c3ccccc3)[C@H]2SC1 [Cephalexin]
fitness, S. pneumoniae D39V, one replicate
Conditions	first compound 0.005 µg/mL	first compound 0.01 µg/mL	first compound 0.02 µg/mL
partner 0.125 µg/mL	0.899	0.909	0.942
partner 0.25 µg/mL	0.874	0.946	0.938
partner 0.5 µg/mL	0.943	0.978	0.95

fitness, S. pneumoniae D39V
Conditions	first compound 0.0065 µg/mL	first compound 0.013 µg/mL	first compound 0.026 µg/mL
partner 1 µg/mL	0.278	0.4	0.176
partner 2 µg/mL	0.0001	0.0222	0.0128
partner 4 µg/mL	0.0361	0.0148	0.0072

C[C@@H](O)[C@H]1C(=O)N2C(C(=O)O)=C(SCCNC=N)C[C@H]12 [Imipenem] + CO[C@@]12[C@H](COC(N)=O)C3=C(C(=O)C(C)=C(N)C3=O)N1C[C@@H]1N[C@@H]12 [Mitomycin C]
S. pneumoniae D39V
Conditions	fitness
first compound 0.005 µg/mL, partner 0.001075 µg/mL	0.906
first compound 0.005 µg/mL, partner 0.00215 µg/mL	0.923
first compound 0.005 µg/mL, partner 0.0043 µg/mL	0.815
first compound 0.0065 µg/mL, partner 0.002 µg/mL	0.797
first compound 0.0065 µg/mL, partner 0.004 µg/mL	0.657
first compound 0.01 µg/mL, partner 0.001075 µg/mL	0.921
first compound 0.01 µg/mL, partner 0.00215 µg/mL	0.876
first compound 0.01 µg/mL, partner 0.0043 µg/mL	0.804
first compound 0.013 µg/mL, partner 0.002 µg/mL	0.583
first compound 0.013 µg/mL, partner 0.004 µg/mL	0.731
first compound 0.013 µg/mL, partner 0.008 µg/mL	0.56
first compound 0.02 µg/mL, partner 0.001075 µg/mL	0.937
first compound 0.02 µg/mL, partner 0.00215 µg/mL	0.919
first compound 0.02 µg/mL, partner 0.0043 µg/mL	0.78
first compound 0.026 µg/mL, partner 0.002 µg/mL	0.737
first compound 0.026 µg/mL, partner 0.004 µg/mL	0.668
first compound 0.026 µg/mL, partner 0.008 µg/mL	0.417

O=C1CN(/N=C/c2ccc([N+](=O)[O-])o2)C(=O)N1 [Nitrofurantoin] + CCC(C)C1C(=O)NC(=C)C(=O)NC(C(=O)NC(CSCC(C(=O)N1)NC(=O)/C(=C/C)/NC(=O)C(C(C)CC)N)C(=O)NC2C(SCC(NC(=O)CNC(=O)C3CCCN3C2=O)C(=O)NC(CCCCN)C(=O)NC4C(SCC(NC(=O)CNC(=O)C(NC(=O)C(NC(=O)C(NC(=O)CNC4=O)C)CC(C)C)CCSC)C(=O)NC(CC(=O)N)C(=O)NC(CCSC)C(=O)NC(CCCCN)C(=O)NC5C(SCC6C(=O)NC(C(=O)NC(CSC(C(C(=O)N6)NC(=O)C(NC5=O)C)C)C(=O)NC(CO)C(=O)NC(C(C)CC)C(=O)NC(CC7=CN=CN7)C(=O)NC(C(C)C)C(=O)NC(=C)C(=O)NC(CCCCN)C(=O)O)CC8=CN=CN8)C)C)C)CC(C)C [Nisin]
S. pneumoniae D39V, main component drawn
Conditions	fitness
first compound 1.285 µg/mL, partner 1.6 µg/mL	0.0025
first compound 1.285 µg/mL, partner 3.2 µg/mL	0.0467
first compound 1.285 µg/mL, partner 6.4 µg/mL	0.0134
first compound 2 µg/mL, partner 0.4275 µg/mL	0.988
first compound 2 µg/mL, partner 0.855 µg/mL	0.991
first compound 2 µg/mL, partner 1.71 µg/mL	0.075
first compound 2.57 µg/mL, partner 1.6 µg/mL	0.0197
first compound 2.57 µg/mL, partner 3.2 µg/mL	0.0583
first compound 2.57 µg/mL, partner 6.4 µg/mL	0.0339
first compound 4 µg/mL, partner 0.4275 µg/mL	0.971
first compound 4 µg/mL, partner 0.855 µg/mL	0.993
first compound 4 µg/mL, partner 1.71 µg/mL	0.0559
first compound 8 µg/mL, partner 0.4275 µg/mL	0.85
first compound 8 µg/mL, partner 1.71 µg/mL	0.0537

S. pneumoniae D39V, first compound 5.14 µg/mL, one replicate, main component drawn
Conditions	fitness
partner 1.6 µg/mL	0.0172
partner 3.2 µg/mL	0.0456
partner 6.4 µg/mL	0.0152

C/C(=C\C(=O)OCCCCCCCCC(=O)O)C[C@@H]1OC[C@H](C[C@@H]2O[C@H]2[C@@H](C)[C@H](C)O)[C@@H](O)[C@H]1O [Pseudomonic acid] + CCC(C)C1C(=O)NC(=C)C(=O)NC(C(=O)NC(CSCC(C(=O)N1)NC(=O)/C(=C/C)/NC(=O)C(C(C)CC)N)C(=O)NC2C(SCC(NC(=O)CNC(=O)C3CCCN3C2=O)C(=O)NC(CCCCN)C(=O)NC4C(SCC(NC(=O)CNC(=O)C(NC(=O)C(NC(=O)C(NC(=O)CNC4=O)C)CC(C)C)CCSC)C(=O)NC(CC(=O)N)C(=O)NC(CCSC)C(=O)NC(CCCCN)C(=O)NC5C(SCC6C(=O)NC(C(=O)NC(CSC(C(C(=O)N6)NC(=O)C(NC5=O)C)C)C(=O)NC(CO)C(=O)NC(C(C)CC)C(=O)NC(CC7=CN=CN7)C(=O)NC(C(C)C)C(=O)NC(=C)C(=O)NC(CCCCN)C(=O)O)CC8=CN=CN8)C)C)C)CC(C)C [Nisin]
fitness, S. pneumoniae D39V, main component drawn
Conditions	partner 0.4275 µg/mL	partner 0.855 µg/mL	partner 1.6 µg/mL	partner 1.71 µg/mL	partner 3.2 µg/mL	partner 6.4 µg/mL
first compound 0.03 µg/mL	0.935	0.928	–	0.0945	0.0435	0.0142
first compound 0.06 µg/mL	0.858	0.81	–	0.0658	0.0566	0.0188
first compound 0.12 µg/mL	0.51	0.21	0.174	0.0732	0.0384	0.0513

C/C(=C\C(=O)OCCCCCCCCC(=O)O)C[C@@H]1OC[C@H](C[C@@H]2O[C@H]2[C@@H](C)[C@H](C)O)[C@@H](O)[C@H]1O [Pseudomonic acid] + O=C1CN(/N=C/c2ccc([N+](=O)[O-])o2)C(=O)N1 [Nitrofurantoin]
fitness, S. pneumoniae D39V
Conditions	partner 1.285 µg/mL	partner 2 µg/mL	partner 2.57 µg/mL	partner 4 µg/mL	partner 8 µg/mL
first compound 0.03 µg/mL	0.916	0.854	0.942	0.872	0.793
first compound 0.06 µg/mL	0.815	0.773	0.819	0.706	0.718
first compound 0.12 µg/mL	0.616	0.563	0.605	0.59	0.515

S. pneumoniae D39V, partner 5.14 µg/mL, one replicate
Conditions	fitness
first compound 0.03 µg/mL	0.912
first compound 0.06 µg/mL	0.8
first compound 0.12 µg/mL	0.556
